Data as given in ChEMBL document CHEMBL1201862, “PubChem BioAssay data set” (2004).
Activity calls are given as the source filed them.

Legend:
[1] = target: Alkaline phosphatase, placental type (Homo sapiens, UniProt P05187); assay: PLAP enzyme inhibitors, confirmation, biochemical, luminescence (AID 1512); format: functional
[2] = target: Induced myeloid leukemia cell differentiation protein Mcl-1 (Homo sapiens, UniProt Q07820); format: functional
Hexokinase HKDC1 = target: T1, Hexokinase HKDC1 (Homo sapiens, UniProt Q2TB90); assay: HKDC1 hexokinase inhibitors, dose response, biochemical, W721R variant (AID 504729); format: functional
T1 sequence (Q2TB90 whole entry): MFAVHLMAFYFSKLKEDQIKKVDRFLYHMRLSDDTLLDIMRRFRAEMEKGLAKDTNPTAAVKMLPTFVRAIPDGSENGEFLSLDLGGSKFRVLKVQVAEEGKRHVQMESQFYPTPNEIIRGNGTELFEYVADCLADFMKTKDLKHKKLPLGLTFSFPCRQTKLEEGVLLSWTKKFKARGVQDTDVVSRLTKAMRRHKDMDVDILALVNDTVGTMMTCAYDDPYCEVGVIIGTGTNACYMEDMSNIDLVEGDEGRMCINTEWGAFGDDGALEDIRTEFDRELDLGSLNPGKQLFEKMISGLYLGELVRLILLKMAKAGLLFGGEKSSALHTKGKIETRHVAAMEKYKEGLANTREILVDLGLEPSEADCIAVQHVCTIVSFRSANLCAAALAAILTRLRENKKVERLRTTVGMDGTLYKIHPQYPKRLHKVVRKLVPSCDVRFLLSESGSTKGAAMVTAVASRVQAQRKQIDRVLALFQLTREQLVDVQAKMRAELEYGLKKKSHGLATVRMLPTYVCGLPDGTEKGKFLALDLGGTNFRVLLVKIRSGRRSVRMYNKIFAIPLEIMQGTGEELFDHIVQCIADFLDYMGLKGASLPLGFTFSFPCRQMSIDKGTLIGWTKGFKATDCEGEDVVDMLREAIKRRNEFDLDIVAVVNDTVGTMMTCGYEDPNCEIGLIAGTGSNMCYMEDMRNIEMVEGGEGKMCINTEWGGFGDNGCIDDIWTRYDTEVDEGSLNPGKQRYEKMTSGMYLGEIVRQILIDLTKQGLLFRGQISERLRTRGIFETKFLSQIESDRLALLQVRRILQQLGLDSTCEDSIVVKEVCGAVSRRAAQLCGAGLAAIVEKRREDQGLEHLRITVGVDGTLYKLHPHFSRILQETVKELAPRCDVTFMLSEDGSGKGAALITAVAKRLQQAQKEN

[3] = target: T2, Replicative DNA helicase DnaB (Mycobacterium tuberculosis, UniProt P9WMR3); assay: DnaB intein splicing inhibitors, dose response, biochemical, cell-free fluorescence (AID 449749); format: functional
T2 sequence (P9WMR3 whole entry): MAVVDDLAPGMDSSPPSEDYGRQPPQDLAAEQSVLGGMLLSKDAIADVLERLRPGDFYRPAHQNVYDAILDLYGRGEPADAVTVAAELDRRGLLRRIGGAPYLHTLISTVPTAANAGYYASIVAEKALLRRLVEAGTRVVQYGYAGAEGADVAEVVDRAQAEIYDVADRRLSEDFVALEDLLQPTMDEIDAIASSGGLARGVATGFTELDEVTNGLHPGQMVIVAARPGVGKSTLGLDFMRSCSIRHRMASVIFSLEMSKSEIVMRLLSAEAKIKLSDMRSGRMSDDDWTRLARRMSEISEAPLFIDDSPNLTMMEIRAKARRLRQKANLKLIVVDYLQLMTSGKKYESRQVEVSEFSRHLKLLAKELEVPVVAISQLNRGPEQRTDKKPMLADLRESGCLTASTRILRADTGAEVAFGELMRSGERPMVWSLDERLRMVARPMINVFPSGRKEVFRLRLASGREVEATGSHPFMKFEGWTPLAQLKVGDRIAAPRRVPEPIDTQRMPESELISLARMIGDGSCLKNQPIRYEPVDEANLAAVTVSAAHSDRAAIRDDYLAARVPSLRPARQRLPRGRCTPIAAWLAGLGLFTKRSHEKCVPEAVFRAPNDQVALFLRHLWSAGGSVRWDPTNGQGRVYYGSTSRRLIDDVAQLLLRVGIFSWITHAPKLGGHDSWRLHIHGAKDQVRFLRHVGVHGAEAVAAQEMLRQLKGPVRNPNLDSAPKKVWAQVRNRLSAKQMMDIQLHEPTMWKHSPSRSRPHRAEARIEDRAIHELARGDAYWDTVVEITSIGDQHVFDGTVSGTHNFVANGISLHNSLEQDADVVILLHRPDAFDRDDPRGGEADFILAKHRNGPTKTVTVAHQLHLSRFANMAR

[4] = target: Glucose-6-phosphate 1-dehydrogenase (Homo sapiens, UniProt P11413); assay: human G6PD enzyme inhibitors, dose response, selectivity assay for P. falciparum G6PD inhibitor project, biochemical, fluorescence (AID 504792); format: functional
Protein RecA = target: T3, Protein RecA (Mycobacterium tuberculosis, UniProt P9WHJ3); assay: Fluorescence Cell-Free Homogeneous Dose Retest to Identify Inhibitors of RecA-Intein Splicing Activity. [Related pubchem assays (depositor defined):AID2097, AID2223, AID489010, AID492950]; format: functional
T3 sequence (P9WHJ3 whole entry): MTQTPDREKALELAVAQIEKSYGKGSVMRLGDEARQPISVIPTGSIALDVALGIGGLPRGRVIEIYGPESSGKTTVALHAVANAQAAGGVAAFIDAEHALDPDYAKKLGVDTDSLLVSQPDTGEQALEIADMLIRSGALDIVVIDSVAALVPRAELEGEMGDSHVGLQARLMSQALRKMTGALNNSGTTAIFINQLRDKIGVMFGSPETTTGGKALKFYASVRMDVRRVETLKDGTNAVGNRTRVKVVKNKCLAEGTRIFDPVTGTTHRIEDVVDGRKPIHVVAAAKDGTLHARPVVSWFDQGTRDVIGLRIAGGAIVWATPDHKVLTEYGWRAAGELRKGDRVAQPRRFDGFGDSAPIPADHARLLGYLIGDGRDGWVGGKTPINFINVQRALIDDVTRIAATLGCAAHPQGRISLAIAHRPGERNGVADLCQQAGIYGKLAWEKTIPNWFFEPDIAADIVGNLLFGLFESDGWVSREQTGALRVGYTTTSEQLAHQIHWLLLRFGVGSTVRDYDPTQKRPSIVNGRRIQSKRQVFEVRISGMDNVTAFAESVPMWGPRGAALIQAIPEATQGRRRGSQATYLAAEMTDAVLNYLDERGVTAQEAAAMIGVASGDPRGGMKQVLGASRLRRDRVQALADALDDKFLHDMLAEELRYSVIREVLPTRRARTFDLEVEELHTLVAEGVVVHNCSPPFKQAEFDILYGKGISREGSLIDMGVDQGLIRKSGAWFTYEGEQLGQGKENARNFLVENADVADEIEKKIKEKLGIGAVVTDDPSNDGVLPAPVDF

Genome polyprotein = Genome polyprotein (dengue virus type 2, UniProt P29990); assay: Dengue-2 NS5 methyltransferase inhibitors, primary screen, biochemical, confirmation dose response (AID 588689); format: functional
[5] = target: Glyceraldehyde-3-phosphate dehydrogenase (Homo sapiens, UniProt P04406)
[6] = target: T4, Alkaline phosphatase, tissue-nonspecific isozyme (Homo sapiens, UniProt P05186); assay: human TNAP enzyme inhibitors, SAR follow-up, biochemical, luminescent, dose response (AID 1056)
T4 sequence (P05186 whole entry): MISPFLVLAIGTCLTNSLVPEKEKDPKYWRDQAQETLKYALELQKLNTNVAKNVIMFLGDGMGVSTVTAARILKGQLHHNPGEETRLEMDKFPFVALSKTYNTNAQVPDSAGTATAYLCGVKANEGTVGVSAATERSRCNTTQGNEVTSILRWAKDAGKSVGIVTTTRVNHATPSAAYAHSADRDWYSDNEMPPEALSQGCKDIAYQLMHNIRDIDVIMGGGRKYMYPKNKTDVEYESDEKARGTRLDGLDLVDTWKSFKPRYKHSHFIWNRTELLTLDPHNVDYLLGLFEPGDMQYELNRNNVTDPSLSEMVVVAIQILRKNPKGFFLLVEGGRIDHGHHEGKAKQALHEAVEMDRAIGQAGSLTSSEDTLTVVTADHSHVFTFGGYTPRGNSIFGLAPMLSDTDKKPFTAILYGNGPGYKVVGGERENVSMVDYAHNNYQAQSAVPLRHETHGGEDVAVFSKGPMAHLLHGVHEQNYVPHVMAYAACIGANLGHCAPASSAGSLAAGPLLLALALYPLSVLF

[7] = target: Neurotensin receptor type 1 (Homo sapiens, UniProt P30989); format: functional;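 also: Image-based confirmatory dose-response assay measuring agonist activity at NTR1; NTR1-expressing U2OS osteosarcoma cells imaged for beta-arrestin GFP spot formation; agonist potency where compounds increase beta-arrestin recruitment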
[8] = target: Dual specificity protein phosphatase 3 (Homo sapiens, UniProt P51452); assay: VHR1 inhibitor Ki determination, SAR follow-up, biochemical, colorimetric (AID 2004)
[9] = inhibitors of intracellular T. cruzi replication, confirmation, NIH3T3 host cells, beta-gal luminescence (AID 2044); format: functional, cell-based;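 also: intracellular parasites grown in NIH/3T3 mouse fibroblasts as host cells; luminescent beta-galactosidase reporter signal from transgenic T. cruzi replicating inside host cells; inhibitors lower the luminescence signal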
Coagulation factor XII = Coagulation factor XII (Homo sapiens, UniProt P00748); format: functional;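 also: activated factor XIIa alpha cleaving a fluorogenic AMC peptide substrate; inhibitor potency from loss of enzyme activity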
[10] = cytotoxicity toward NIH3T3 fibroblasts, dose response, counter-screen, cell-based, ATP luminescence, mouse fibroblasts (AID 2010); format: functional;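 also: cells exposed to compound for about 90 hours before reading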
[11] = target: Mitochondrial peptide methionine sulfoxide reductase (Bos taurus, UniProt P54149); assay: Absorbance-based biochemical high throughput dose response assay for activators of Methionine sulfoxide reductase A (MsrA).; format: functional
Phosphomannomutase 2 = target: T5, Phosphomannomutase 2 (Homo sapiens, UniProt O15305); assay: Counter screen SAR assay for PMM2 inhibitors via a fluorescence intensity assay. [Related pubchem assays (depositor defined):AID1545, AID1574]
T5 sequence (O15305 whole entry): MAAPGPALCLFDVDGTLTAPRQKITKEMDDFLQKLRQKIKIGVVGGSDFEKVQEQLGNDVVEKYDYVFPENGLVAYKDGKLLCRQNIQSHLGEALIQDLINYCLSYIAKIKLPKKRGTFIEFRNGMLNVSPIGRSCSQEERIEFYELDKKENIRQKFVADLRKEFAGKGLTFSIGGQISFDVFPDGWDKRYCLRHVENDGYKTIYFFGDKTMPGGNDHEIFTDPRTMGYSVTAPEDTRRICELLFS

[12] = target: DNA dC->dU-editing enzyme APOBEC-3G (Homo sapiens, UniProt Q9HC16); assay: Dose Response confirmation of small molecule APOBEC3G DNA Deaminase Inhibitors via a fluorescence-based single-stranded DNA deaminase assay. [Related pubchem assays (depositor defined):AID493012, AID493028]; format: functional
[13] = target: DNA dC->dU-editing enzyme APOBEC-3A (Homo sapiens, UniProt P31941); assay: APOBEC3A DNA deaminase inhibitors, dose response, biochemical (AID 504722); format: functional
[14] = target: T6, Mannose-6-phosphate isomerase (Homo sapiens, UniProt P34949); assay: PMI enzyme inhibitors, confirmation, biochemical, fluorescence intensity (AID 1535)
T6 sequence (P34949 whole entry): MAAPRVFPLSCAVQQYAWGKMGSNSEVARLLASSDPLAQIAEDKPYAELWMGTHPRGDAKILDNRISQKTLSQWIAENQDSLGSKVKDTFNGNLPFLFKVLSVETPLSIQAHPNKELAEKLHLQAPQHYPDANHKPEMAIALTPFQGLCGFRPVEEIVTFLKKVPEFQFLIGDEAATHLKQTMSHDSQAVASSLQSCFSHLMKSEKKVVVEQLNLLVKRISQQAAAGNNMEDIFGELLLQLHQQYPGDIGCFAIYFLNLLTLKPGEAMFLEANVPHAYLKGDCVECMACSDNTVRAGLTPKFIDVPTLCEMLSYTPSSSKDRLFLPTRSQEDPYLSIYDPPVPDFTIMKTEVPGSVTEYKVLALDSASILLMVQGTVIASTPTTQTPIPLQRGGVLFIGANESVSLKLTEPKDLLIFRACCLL

Large T antigen = Large T antigen (Simian virus 40, UniProt P03070); format: functional, Betapolyomavirus macacae;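 also: Confirmatory-stage PubChem screen for compounds that inhibit SV40 T antigen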
[15] = target: DNA damage-inducible transcript 3 protein (Mus musculus, UniProt P35639); format: functional, Cricetulus griseus
[16] = cytotoxicity in HEK-293T cells, dose response, cytotoxicity control for TCR NF-kB inhibitor project, luminescence, T-cell screen hits (AID 489026); format: functional, cell-based;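 also: cells exposed to compound about 14 hours before the viability readout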
[17] = target: E3 ubiquitin-protein ligase Mdm2 (Homo sapiens, UniProt Q00987); assay: enhancers of MDM2-luciferase reporter signal, concentration-effect titration, project on inhibitors of MDM2 ubiquitin ligase, cellular assay, luminescent readout, 384-well plate format (AID 1394); format: functional;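 also: MDM2 E3 inhibitors raise luminescence so EC50 is for signal enhancement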
INS1 = assay: beta cell apoptosis inhibitors, cytokine rescue, dose response, luminescence, retest (AID 449756); format: functional, cell-based; details: Rattus norvegicus;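 also: cell death triggered by IL-1 beta plus TNF-alpha plus IFN-gamma mixture; protective hits raise ATP signal compared with cytokine alone wells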

Dual specificity protein phosphatase 3, sequence (P51452 whole entry): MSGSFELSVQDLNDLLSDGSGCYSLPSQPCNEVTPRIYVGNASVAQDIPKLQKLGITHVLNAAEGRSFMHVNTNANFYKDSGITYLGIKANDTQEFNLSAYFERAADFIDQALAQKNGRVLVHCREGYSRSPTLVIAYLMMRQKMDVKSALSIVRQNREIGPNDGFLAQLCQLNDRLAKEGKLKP
DNA dC->dU-editing enzyme APOBEC-3A, sequence (P31941 whole entry): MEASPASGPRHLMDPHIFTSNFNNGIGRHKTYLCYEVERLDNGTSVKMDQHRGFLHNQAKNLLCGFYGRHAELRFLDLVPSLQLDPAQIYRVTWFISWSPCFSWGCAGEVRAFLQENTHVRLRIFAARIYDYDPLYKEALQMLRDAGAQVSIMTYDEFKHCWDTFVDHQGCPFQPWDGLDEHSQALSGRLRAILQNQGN
Glyceraldehyde-3-phosphate dehydrogenase, sequence (P04406 whole entry): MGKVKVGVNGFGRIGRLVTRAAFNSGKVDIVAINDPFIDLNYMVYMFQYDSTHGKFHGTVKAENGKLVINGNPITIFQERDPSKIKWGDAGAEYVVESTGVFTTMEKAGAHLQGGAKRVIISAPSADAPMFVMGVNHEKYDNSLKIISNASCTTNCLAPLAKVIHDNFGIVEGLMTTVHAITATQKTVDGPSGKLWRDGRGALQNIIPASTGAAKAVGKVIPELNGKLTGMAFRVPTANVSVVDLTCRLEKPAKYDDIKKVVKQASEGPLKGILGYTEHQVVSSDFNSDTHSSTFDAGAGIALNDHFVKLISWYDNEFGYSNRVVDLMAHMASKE
DNA dC->dU-editing enzyme APOBEC-3G, sequence (Q9HC16 whole entry): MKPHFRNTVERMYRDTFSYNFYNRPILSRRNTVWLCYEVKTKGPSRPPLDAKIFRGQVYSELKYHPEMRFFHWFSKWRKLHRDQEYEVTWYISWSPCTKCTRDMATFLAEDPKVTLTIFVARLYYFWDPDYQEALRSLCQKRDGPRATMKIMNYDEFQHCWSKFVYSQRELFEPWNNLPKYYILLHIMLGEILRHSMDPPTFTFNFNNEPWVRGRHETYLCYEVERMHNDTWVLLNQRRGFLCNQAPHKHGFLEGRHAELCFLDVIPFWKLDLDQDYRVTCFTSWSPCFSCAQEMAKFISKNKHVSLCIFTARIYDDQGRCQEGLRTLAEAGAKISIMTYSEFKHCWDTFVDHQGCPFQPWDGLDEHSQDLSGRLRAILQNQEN
Alkaline phosphatase, placental type, sequence (P05187 whole entry): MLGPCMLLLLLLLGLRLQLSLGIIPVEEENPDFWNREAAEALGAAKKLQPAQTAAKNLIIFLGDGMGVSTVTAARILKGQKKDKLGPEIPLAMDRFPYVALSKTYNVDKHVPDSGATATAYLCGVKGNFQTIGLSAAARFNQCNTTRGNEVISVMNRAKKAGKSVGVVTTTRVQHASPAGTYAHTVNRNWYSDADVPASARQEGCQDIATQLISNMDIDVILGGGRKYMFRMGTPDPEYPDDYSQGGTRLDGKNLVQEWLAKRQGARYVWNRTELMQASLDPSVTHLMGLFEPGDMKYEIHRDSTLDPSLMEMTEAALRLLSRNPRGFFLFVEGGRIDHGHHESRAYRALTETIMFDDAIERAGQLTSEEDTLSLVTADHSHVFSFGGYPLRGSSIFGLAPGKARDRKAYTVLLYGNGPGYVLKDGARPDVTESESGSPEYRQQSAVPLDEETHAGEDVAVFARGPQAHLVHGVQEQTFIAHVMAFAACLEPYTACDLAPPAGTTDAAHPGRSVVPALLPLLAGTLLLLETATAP
DNA damage-inducible transcript 3 protein, sequence (P35639 whole entry): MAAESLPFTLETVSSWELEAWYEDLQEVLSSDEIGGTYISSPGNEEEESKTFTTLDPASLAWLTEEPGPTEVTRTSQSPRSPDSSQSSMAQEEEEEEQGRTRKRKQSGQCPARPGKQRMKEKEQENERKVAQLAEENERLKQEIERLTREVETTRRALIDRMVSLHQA
Large T antigen, sequence (P03070 whole entry): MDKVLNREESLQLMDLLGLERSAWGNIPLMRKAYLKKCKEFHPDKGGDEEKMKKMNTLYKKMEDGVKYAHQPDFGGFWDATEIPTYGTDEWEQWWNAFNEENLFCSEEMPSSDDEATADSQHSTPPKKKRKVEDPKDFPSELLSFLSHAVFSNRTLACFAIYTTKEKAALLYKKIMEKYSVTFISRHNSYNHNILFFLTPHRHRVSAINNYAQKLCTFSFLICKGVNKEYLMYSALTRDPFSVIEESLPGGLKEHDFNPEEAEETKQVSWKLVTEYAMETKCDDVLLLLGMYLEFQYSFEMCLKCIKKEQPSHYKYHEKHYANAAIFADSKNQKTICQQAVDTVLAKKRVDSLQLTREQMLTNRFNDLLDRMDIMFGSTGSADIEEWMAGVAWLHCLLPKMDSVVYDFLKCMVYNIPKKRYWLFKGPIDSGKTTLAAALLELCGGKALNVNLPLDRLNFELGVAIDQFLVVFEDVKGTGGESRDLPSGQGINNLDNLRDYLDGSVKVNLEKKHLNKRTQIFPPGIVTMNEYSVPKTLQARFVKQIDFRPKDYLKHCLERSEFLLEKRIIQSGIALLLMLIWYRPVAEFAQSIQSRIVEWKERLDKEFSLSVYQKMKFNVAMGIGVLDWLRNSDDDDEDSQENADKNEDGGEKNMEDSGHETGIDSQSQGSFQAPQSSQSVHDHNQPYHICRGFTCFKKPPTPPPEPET
Coagulation factor XII, sequence (P00748 20-372 limits assumed): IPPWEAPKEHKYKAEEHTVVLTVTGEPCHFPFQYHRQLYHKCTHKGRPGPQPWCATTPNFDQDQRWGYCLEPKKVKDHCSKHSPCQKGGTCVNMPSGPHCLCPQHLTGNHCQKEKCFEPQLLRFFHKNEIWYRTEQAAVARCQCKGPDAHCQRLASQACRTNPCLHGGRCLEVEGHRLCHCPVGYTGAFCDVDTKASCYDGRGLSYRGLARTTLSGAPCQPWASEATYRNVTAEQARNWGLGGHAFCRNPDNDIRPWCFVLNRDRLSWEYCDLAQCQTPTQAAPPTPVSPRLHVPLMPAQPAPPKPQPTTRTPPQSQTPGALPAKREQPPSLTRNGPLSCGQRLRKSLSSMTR
Coagulation factor XII, sequence (P00748 373-615 limits assumed): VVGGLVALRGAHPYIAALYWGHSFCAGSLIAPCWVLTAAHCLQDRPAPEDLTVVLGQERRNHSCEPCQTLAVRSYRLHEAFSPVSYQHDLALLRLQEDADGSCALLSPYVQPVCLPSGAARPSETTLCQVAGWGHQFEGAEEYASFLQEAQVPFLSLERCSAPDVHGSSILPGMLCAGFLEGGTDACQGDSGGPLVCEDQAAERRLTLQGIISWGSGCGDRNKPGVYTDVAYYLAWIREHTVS
Induced myeloid leukemia cell differentiation protein Mcl-1, sequence (Q07820 whole entry): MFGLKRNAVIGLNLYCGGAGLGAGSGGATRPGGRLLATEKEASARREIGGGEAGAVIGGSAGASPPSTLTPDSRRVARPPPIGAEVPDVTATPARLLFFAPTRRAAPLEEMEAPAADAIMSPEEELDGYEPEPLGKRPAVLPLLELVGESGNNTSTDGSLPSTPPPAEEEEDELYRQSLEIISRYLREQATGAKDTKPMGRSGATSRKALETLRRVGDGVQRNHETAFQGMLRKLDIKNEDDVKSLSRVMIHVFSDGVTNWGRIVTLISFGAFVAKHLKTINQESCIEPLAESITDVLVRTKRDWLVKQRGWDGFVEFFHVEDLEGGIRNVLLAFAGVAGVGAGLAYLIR
Mitochondrial peptide methionine sulfoxide reductase, sequence (P54149 whole entry): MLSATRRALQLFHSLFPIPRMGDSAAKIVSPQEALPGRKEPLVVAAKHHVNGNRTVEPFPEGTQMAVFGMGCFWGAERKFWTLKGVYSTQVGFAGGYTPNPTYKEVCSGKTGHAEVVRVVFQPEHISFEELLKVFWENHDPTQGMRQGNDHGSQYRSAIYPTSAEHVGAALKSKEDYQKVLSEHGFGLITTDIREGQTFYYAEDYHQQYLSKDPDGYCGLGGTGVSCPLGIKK
Genome polyprotein, sequence (P29990 2492-3391 limits assumed): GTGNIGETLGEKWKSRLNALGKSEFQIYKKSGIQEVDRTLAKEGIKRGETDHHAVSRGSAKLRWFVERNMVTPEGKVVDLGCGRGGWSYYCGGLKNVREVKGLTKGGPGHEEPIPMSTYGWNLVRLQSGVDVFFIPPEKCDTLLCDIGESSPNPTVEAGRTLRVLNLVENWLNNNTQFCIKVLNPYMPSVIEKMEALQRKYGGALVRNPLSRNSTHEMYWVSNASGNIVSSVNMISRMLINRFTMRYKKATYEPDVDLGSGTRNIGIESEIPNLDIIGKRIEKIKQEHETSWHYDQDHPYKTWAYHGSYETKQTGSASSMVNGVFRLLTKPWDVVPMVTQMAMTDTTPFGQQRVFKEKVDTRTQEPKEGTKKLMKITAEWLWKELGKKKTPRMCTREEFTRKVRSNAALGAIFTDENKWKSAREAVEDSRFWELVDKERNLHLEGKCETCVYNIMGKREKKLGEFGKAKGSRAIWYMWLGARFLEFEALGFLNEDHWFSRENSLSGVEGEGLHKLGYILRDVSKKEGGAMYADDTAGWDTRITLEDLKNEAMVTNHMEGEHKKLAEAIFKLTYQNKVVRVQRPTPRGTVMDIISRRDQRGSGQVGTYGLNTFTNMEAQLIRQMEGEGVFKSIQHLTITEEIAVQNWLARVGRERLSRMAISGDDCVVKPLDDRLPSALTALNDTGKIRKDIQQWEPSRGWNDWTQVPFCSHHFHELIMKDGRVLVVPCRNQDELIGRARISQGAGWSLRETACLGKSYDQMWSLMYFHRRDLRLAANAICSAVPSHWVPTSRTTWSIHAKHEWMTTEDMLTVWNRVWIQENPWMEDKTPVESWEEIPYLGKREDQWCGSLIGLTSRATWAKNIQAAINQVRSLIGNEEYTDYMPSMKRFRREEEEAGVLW

COc1ccc(C(=O)NN=C(S)NC2CCCCC2)cc1OC
IC50 [1]: > 100 µM (inactive)

Cc1nc(COC(=O)c2cc(O)c3ccccc3c2O)cs1
IC50 [2]: 4.84 µM (active)
IC50 (Hexokinase HKDC1): 12.1 µM (active)
AC50 [3]: 24.7 µM (active)
IC50 [4]: > 80 µM (inactive)
EC50 (Protein RecA): 5.24 µM (active)
IC50 (Genome polyprotein): 43.1 µM (active)

O=S(=O)(Nc1cnc2ccccc2c1)c1ccccc1OC(F)(F)F
IC50 [5]: > 100 µM (not active)
IC50 [6]: 16.4 µM (active)

C[C@H](NC(=O)c1nc[nH]c1C(=O)Nc1cccc(Cl)c1)c1ccccc1
EC50 [7]: 24 µM (inactive)

S=C(S)N(CCN(Cc1cccs1)C(=S)S)Cc1cccs1
Ki [8]: 36.3 µM (inactive)

O=C(c1cc(-c2cc(F)c(Cl)cc2Cl)n[nH]1)N1CCCC1
IC50 [5]: > 100 µM (not active)
IC50 [1]: > 100 µM (inactive)
IC50 [6]: > 100 µM (inactive)

CC1(C)c2ssc(=S)c2-c2ccccc2N1C(=O)CN1CCOCC1
Ki [8]: 40.5 µM (inactive)

COc1ccc(CN2CCN(C(=O)C3CCC(CNS(=O)(=O)c4ccccc4)CC3)CC2)c(OC)c1OC (stereo unspecified)
EC50 [9]: 0.503 µM (active)
IC50 (Coagulation factor XII): > 50 µM (inactive)
EC50 [10]: > 60 µM (not active)

COc1cc(-c2n[nH]c(=S)[nH]2)cc(OC)c1OC
EC50 [11]: > 104 µM (inactive)
IC50 (Phosphomannomutase 2): > 100 µM (inactive)
IC50 [12]: 3.13 µM (active)
IC50 [13]: > 100 µM (inactive)
IC50 [14]: 38.9 µM (active)
IC50 (Large T antigen): 8.6 µM (active)

Oc1ccc(/C=N/N2CCN(C3c4ccccc4-c4ccccc43)CC2)c(O)c1
Absolute IC50 (CHOP) [15]: 10 µM

Sc1nncn1/N=C/c1ccc(Br)cc1
IC50 [12]: 2.72 µM (active)
IC50 [13]: > 100 µM (inactive)

C=C1C(=O)O[C@H]2C[C@@H](C)[C@@H]3C=CC(=O)[C@@]3(C)C[C@H]12 [AROMATICIN]
IC50 [16]: > 80 µM (inactive)
EC50 [17]: 0.59 µM (not active)
Absolute IC50 (CHOP) [15]: 10 µM
AC50 (INS1): 7.82 µM (active)
